According to US9745506B2, “Treatment fluids for use in removing acid-soluble materials in subterranean formations” (Halliburton Energy Services, Inc., priority 2015, dated 2017):
Where two headings read alike, the source gives them in different places.

Legend:
[1] = cited from earlier work
[2] = solubility of PMIDA; format: physicochemical; conditions: room temperature
Text: The solubility of the PMIDA in the MSA and the ability of both the MSA and the PMIDA to remove acid-soluble materials of the present disclosure synergistically operate to continuously remove acid-soluble materials at deeper far-field locations than traditional acid fluids, which may become spent prior to reaching such deep areas.
In the working temperature range of the treatment fluid, as described above, the PMIDA may be solubilized in the MSA of the treatment fluids described herein. In some embodiments, the PMIDA is about 5% w/v soluble at room temperature in a solution of about 70% MSA in an aqueous base fluid, described below. In other embodiments, higher w/v concentrations of PMIDA may be prepared using varied solutions of MSA alone or in combination with an aqueous base fluid, which will undergo different dissolution amounts depending on the working temperature of the treatment fluid. Each of these values is critical to the embodiments described herein and may depend on a number of factors including, but not limited to, the working temperature of the treatment fluid (e.g., the temperature or temperature range of the subterranean formation being treated), the amount of MSA in the treatment fluid relative to the PMIDA, the amount of PMIDA in the treatment fluid relative to the MSA, and the like.

[3] = 25° C.; cited from earlier work

methanesulfonic acid [MSA]
pKa ([1]; 25° C. in dimethyl sulfoxide): about 1.6
pKa ([1]; 25° C. in water): −1.9

O=C(O)CN(CC(=O)O)CP(=O)(O)O [PMIDA, N-(phosphonomethyl)iminodiacetic acid]
soluble in a solution of about 70% MSA in an aqueous base fluid [2]: about 5 % w/v
solubility in water [3]: < 500 µg/mL
